In PubChem BioAssay (NCI):
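Dose response: 5 concentrations. Exposure: 48 h. Format: 96-well plates. Endpoint: linear interpolation; highest concentration if not reached. TGI denotes the concentration required for complete inhibition of growth.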

How the values were obtained:
Experiment in all cases: growth of human tumour cells (NCI), 48 h
RPMI-8226 leukemia = test system: RPMI-8226 leukemia
COLO 205 colon = test system: COLO 205 colon
BT-549 breast = test system: BT-549 breast
DU-145 prostate = test system: DU-145 prostate
KM12 colon = test system: KM12 colon
OVCAR-3 ovarian = test system: OVCAR-3 ovarian
SNB-75 CNS = test system: SNB-75 CNS
MOLT-4 leukemia = test system: MOLT-4 leukemia
K-562 leukemia = test system: K-562 leukemia
HCT-15 colon = test system: HCT-15 colon
M14 melanoma = test system: M14 melanoma
OVCAR-8 ovarian = test system: OVCAR-8 ovarian
OVCAR-4 ovarian = test system: OVCAR-4 ovarian
SF-295 CNS = test system: SF-295 CNS
SK-MEL-2 melanoma = test system: SK-MEL-2 melanoma
UACC-62 melanoma = test system: UACC-62 melanoma
SK-OV-3 ovarian = test system: SK-OV-3 ovarian
SK-MEL-5 melanoma = test system: SK-MEL-5 melanoma

| SMILES | TGI (RPMI-8226 leukemia) [µM] | TGI (COLO 205 colon) [µM] | TGI (BT-549 breast) [µM] | TGI (DU-145 prostate) [µM] | TGI (KM12 colon) [µM] | TGI (OVCAR-3 ovarian) [µM] | TGI (SNB-75 CNS) [µM] | TGI (MOLT-4 leukemia) [µM] | TGI (K-562 leukemia) [µM] | TGI (HCT-15 colon) [µM] | TGI (M14 melanoma) [µM] | TGI (OVCAR-8 ovarian) [µM] | TGI (OVCAR-4 ovarian) [µM] | TGI (SF-295 CNS) [µM] | TGI (SK-MEL-2 melanoma) [µM] | TGI (UACC-62 melanoma) [µM] | TGI (SK-OV-3 ovarian) [µM] | TGI (SK-MEL-5 melanoma) [µM] |
| --- | --- | --- | --- | --- | --- | --- | --- | --- | --- | --- | --- | --- | --- | --- | --- | --- | --- | --- |
| CC(=O)Oc1ccc(-c2cc3ccccc3oc2=O)cc1 | > 100 | > 100 | > 100 | > 100 | 39.9 | 70.9 | > 100 | > 100 | > 100 | > 100 | > 100 | > 100 | > 100 | > 100 | > 100 | – | – | – |
| Cc1cc2c(cc1Cl)S(=O)(=O)OC(c1ccc([N+](=O)[O-])cc1)=N2 | > 100 | > 100 | > 100 | > 100 | > 100 | > 100 | > 100 | > 100 | > 100 | > 100 | > 100 | > 100 | > 100 | > 100 | – | > 100 | > 100 | > 100 |
| O=c1ccn([C@@H]2C[C@@H]2CO)c(=O)[nH]1 | > 100 | > 100 | > 100 | > 100 | > 100 | – | > 100 | – | > 100 | > 100 | > 100 | > 100 | > 100 | – | > 100 | > 100 | – | > 100 |
| C=CCc1cccc2cc(C(=O)Nc3ccccc3)c(=N)oc12 | > 100 | > 100 | > 100 | > 100 | > 100 | > 100 | > 100 | > 100 | > 100 | > 100 | > 100 | > 100 | 74.9 | – | 38.5 | > 100 | > 100 | > 100 |
| COc1cc2c(cc1OCCCCN1C(=O)c3cccc4cccc(c34)C1=O)N=C[C@@H]1CCCN1C2=O | 27.4 | 8.21 | 28.7 | 14.3 | 13.2 | 10.4 | – | > 100 | > 100 | 14.8 | > 34.3 | 82.8 | 18.3 | 45.8 | 17.9 | 39.9 | > 74 | 4.42 |
| Cc1nn(C(=O)Cc2ccccc2)c2c1C(c1ccc(O)cc1O)SC(N)=N2 (stereo unspecified) | > 100 | > 100 | > 100 | > 100 | > 100 | – | > 100 | > 100 | – | > 100 | > 100 | > 100 | – | > 100 | – | > 100 | > 100 | > 100 |
| CCCCCCCCCCCCCCCCOCC(CC(F)(F)P(=O)(OCC)OCC)OC(C)=O (stereo unspecified) | > 100 | 32.5 | 28.8 | 28.8 | 23.8 | 31.4 | 32.9 | > 100 | 48.9 | 20.2 | 31.9 | – | 29.3 | 24.4 | 35.9 | 30.2 | 35 | 36.2 |
